Data taken from patent publication US20250197372A1 (priority 2020, published 2025).
Read-outs that look alike come from different tables or passages of the source.

Legend:
Assay type in all cases: biochemical
[1] = target: T1, recombinant alpha-glucosidase I (human full-length glucosidase I, Glu 1) (Homo sapiens, UniProt Q13724); experiment: Alpha-glucosidase I assay (Amplex Red glucose detection, synthetic trisaccharide substrate)
T1 construct: 6-His (C); made in house; host or cells: HEK-293T cells transduced with BacMam virus (virus raised in Sf9)
T1 sequence (Q13724 1-837): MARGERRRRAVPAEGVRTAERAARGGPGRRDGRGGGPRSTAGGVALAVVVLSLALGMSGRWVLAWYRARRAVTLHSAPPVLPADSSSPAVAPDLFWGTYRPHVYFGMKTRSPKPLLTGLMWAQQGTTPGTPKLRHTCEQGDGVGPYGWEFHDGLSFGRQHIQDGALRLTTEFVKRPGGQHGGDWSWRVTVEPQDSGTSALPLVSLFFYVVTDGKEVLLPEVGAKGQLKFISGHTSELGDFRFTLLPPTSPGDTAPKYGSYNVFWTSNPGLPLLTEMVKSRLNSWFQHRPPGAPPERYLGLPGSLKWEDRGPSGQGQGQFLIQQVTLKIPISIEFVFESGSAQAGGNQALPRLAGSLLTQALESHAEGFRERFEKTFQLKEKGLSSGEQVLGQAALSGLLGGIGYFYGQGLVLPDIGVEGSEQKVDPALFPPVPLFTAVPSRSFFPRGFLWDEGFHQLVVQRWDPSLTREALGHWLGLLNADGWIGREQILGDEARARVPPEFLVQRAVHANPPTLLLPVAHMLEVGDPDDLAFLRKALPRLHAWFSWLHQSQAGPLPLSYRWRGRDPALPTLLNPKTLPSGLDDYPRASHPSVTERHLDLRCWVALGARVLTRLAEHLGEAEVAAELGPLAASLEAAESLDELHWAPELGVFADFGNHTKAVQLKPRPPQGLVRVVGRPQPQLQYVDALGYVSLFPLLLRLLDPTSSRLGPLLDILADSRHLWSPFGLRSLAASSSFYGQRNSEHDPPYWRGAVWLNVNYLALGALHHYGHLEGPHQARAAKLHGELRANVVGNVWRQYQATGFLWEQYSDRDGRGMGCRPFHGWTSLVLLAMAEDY
Procedure, shortened: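 Compound dilution series incubated 60 min at 37° C with recombinant His-tagged human glucosidase I ([…]), after which trisaccharide substrate analog was added for 90 min at 37° C. Reaction quenched with 1.5M Tris pH 8; D-glucose detected by Amplex Red fluorescence, 560/590 nm. 4-PL curve fit of percent inhibition gave IC50.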

[2] = target: recombinant human GAA (acid alpha-glucosidase) (Homo sapiens, UniProt P10253); experiment: Acid alpha-glucosidase (GAA) assay (4-methylumbelliferyl-alpha-D-pyranoside substrate, fluorescence)
Procedure, shortened: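 IC50 from 4-PL curve fit of percent inhibition, based on fluorescence (365/440 nm) of released methylumbelliferone relative to uninhibited enzyme. Compound dilutions and human GAA incubated 60 min, 37 °C, before 20 min substrate reaction at 37 °C, quenched at pH 10.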

[3] = target: rat sucrase (partially purified alpha-glucosidase from intestinal rat powder) (Rattus norvegicus, UniProt P23739); experiment: Intestinal alpha-glucosidase assay, sucrose substrate (Glucose GO Kit)
Procedure, shortened: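 First step: 60 min, 37 °C, compound with partially purified rat intestinal alpha-glucosidase. Next, maltose or sucrose for 30 min at 37 °C, ended at 90 °C for 5 min. Glucose quantified enzymatically; concentration–inhibition data fitted 4-PL for IC50.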

[4] = target: rat maltase (partially purified alpha-glucosidase from intestinal rat powder); experiment: Intestinal alpha-glucosidase assay, maltose substrate (Glucose GO Kit)
Procedure, shortened: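 Glucose release is the read-out: compounds at multiple dilutions are first held with partially purified rat intestinal alpha-glucosidase for 60 min at 37 °C, after which maltose or sucrose substrate reacts for 30 min at 37 °C before a 5 min 90 °C stop. IC50 comes from a four-parameter logistic fit.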

[5] = Glucosidase 1, read-out: Glu 1 IC50

Sequence of rat sucrase (partially purified alpha-glucosidase from intestinal rat powder) (P23739 whole entry): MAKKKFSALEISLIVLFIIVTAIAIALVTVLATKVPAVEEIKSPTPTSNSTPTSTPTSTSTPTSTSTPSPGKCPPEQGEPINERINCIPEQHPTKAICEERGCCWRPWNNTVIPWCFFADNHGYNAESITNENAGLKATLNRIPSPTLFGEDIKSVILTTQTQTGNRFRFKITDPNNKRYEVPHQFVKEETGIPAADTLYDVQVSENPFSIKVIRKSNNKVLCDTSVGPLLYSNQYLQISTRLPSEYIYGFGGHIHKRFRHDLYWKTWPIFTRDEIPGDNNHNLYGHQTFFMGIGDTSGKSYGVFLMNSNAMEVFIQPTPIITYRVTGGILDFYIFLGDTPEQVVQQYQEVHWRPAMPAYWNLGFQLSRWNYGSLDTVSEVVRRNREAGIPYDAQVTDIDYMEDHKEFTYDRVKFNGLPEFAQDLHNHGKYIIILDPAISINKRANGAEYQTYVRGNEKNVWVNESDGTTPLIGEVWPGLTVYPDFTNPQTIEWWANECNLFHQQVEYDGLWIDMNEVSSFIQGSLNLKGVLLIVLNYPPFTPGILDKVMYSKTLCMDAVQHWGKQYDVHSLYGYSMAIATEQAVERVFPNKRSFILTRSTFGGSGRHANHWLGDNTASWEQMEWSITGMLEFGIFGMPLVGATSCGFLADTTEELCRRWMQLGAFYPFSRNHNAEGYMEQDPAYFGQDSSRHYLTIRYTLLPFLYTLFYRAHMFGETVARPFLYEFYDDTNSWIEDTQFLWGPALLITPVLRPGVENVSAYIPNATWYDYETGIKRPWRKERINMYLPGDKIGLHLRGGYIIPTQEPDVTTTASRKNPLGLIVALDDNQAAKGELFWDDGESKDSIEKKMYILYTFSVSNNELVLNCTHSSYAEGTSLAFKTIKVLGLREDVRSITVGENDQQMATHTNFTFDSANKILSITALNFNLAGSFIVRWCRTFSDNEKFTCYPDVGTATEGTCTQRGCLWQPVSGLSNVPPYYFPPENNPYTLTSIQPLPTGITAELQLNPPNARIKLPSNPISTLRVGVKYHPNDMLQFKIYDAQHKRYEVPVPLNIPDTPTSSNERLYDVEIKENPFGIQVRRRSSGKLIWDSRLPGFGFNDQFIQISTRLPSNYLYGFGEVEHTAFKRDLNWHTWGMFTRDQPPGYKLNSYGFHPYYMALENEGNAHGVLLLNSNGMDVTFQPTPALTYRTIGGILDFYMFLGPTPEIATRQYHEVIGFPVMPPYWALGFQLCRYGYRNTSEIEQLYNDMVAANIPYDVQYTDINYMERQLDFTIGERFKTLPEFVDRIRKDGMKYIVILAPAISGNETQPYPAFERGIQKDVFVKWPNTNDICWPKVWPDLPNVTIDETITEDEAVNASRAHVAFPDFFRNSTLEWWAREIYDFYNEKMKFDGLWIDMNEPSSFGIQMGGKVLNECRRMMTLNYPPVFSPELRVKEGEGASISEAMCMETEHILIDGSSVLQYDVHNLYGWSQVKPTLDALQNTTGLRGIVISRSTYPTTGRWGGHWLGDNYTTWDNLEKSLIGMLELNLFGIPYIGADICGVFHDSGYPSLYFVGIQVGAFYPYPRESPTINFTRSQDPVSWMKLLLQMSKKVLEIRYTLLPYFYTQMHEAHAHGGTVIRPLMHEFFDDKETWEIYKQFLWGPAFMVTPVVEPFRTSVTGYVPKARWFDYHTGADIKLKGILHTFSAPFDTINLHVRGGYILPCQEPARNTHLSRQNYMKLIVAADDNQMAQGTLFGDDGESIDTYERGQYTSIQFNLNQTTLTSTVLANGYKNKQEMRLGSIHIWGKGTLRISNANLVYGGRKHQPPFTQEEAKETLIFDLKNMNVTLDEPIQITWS

SMILES	IC50 [1, 5]	IC50 [2]	IC50 [3]	IC50 [4]	IC50 [1]
OC[C@@H]1[C@@H](O)[C@H](O)[C@@H](O)CN1CCCCCCNc1cc(-c2ncccn2)cc(C(F)(F)F)c1 [Compound 1131, (2R,3R,4R,5S)-2-(hydroxymethyl)-1-(6-{[3-(pyrimidin-2-yl)-5-(trifluoromethyl)phenyl]amino}hexyl)piperidine-3,4,5-triol]	232 nM	25 nM	40 nM	8 nM	
COc1cc(C#N)cc(NCCc2ccc(CCN3C[C@H](O)[C@@H](O)[C@H](O)[C@H]3CO)cc2)c1 [Compound 1133, 3-methoxy-5-{[2-(4-{2-[(2R,3R,4R,5S)-3,4,5-trihydroxy-2-(hydroxymethyl)piperidin-1-yl]ethyl}phenyl)ethyl]amino}benzonitrile]	1280 nM	542 nM	237 nM	97 nM	
N#Cc1cc(Cl)cc(NCCc2ccc(CCN3C[C@H](O)[C@@H](O)[C@H](O)[C@H]3CO)cc2)c1 [Compound 1134, 3-chloro-5-{[2-(4-{2-[(2R,3R,4R,5S)-3,4,5-trihydroxy-2-(hydroxymethyl)piperidin-1-yl]ethyl}phenyl)ethyl]amino}benzonitrile]	640 nM	167 nM	259 nM	130 nM	
O=[N+]([O-])c1cc(C2CC2)ccc1NCCCCCCN1C[C@H](O)[C@@H](O)[C@H](O)[C@H]1CO [Compound 1136, (2R,3R,4R,5S)-1-{6-[(4-cyclopropyl-2-nitrophenyl)amino]hexyl}-2-(hydroxymethyl)piperidine-3,4,5-triol]	25 nM	9 nM	< 1 nM	< 1 nM	
O=[N+]([O-])c1cc(-c2ccccc2)ccc1NCCCCCCN1C[C@H](O)[C@@H](O)[C@H](O)[C@H]1CO [Compound 1138, (2R,3R,4R,5S)-2-(hydroxymethyl)-1-[6-({3-nitro-[1,1′-biphenyl]-4-yl}amino)hexyl]piperidine-3,4,5-triol]		< 1 nM	< 1 nM	< 1 nM	115 nM
[N-]=[N+]=Nc1ccc(NCCc2cc(Br)cc(CCN3C[C@H](O)[C@@H](O)[C@H](O)[C@H]3CO)c2)c([N+](=O)[O-])c1 [Compound 1140, (2R,3R,4R,5S)-1-[2-(3-{2-[(4-azido-2-nitrophenyl)amino]ethyl}-5-bromophenyl)ethyl]-2-(hydroxymethyl)piperidine-3,4,5-triol]	153 nM	2090 nM	4140 nM	3120 nM	
COc1cc(CC2CCOC2)cc(NCCCCCCN2C[C@H](O)[C@@H](O)[C@H](O)[C@H]2CO)c1 (stereo partly drawn) [Compound 1141, (2R,3R,4R,5S)-2-(hydroxymethyl)-1-[6-({3-methoxy-5-[(oxolan-3-yl)methyl]phenyl}amino)hexyl]piperidine-3,4,5-triol]	1160 nM	188 nM	696 nM	43 nM	
[N-]=[N+]=Nc1ccc(NCCNc2cc(Cl)cc(CCN3C[C@H](O)[C@@H](O)[C@H](O)[C@H]3CO)c2)c([N+](=O)[O-])c1 [Compound 1143, (2R,3R,4R,5S)-1-{2-[3-({2-[(4-azido-2-nitrophenyl)amino]ethyl}amino)-5-chlorophenyl]ethyl}-2-(hydroxymethyl)piperidine-3,4,5-triol]	334 nM	796 nM	2010 nM	2060 nM	
COc1cc(Cc2ccccc2)cc(NCCCCCCN2C[C@H](O)[C@@H](O)[C@H](O)[C@H]2CO)c1 [Compound 1145, (2R,3R,4R,5S)-1-{6-[(3-benzyl-5-methoxyphenyl)amino]hexyl}-2-(hydroxymethyl)piperidine-3,4,5-triol]	283 nM	60 nM	3 nM	< 1 nM	
COc1cc(NCCCCCCN2C[C@H](O)[C@@H](O)[C@H](O)[C@H]2CO)cc(C2CCCO2)c1 (stereo partly drawn) [Compound 1146, (2R,3R,4R,5S)-2-(hydroxymethyl)-1-(6-{[3-methoxy-5-(oxolan-2-yl)phenyl]amino}hexyl)piperidine-3,4,5-triol]	511 nM	68 nM	92 nM	23 nM	
COc1cc(NCCCCCCN2C[C@H](O)[C@@H](O)[C@H](O)[C@H]2CO)cc(C2=CCCO2)c1 [Compound 1147, (2R,3R,4R,5S)-1-(6-{[3-(4,5-dihydrofuran-2-yl)-5-methoxyphenyl]amino}hexyl)-2-(hydroxymethyl)piperidine-3,4,5-triol]	263 nM	38 nM	40 nM	8 nM	
COc1cc(NCCCCCCN2C[C@H](O)[C@@H](O)[C@H](O)[C@H]2CO)cc(C2CCCCC2)c1 [Compound 1148, (2R,3R,4R,5S)-1-{6-[(3-cyclohexyl-5-methoxyphenyl)amino]hexyl}-2-(hydroxymethyl)piperidine-3,4,5-triol]	372 nM	88 nM	1 nM	< 1 nM	
COc1cc(NCCCCCCN2C[C@H](O)[C@@H](O)[C@H](O)[C@H]2CO)cc(C2=CCCCC2)c1 [Compound 1149, (2R,3R,4R,5S)-1-(6-{[3-(cyclohex-1-en-1-yl)-5-methoxy-phenyl]amino}hexyl)-2-(hydroxymethyl)piperidine-3,4,5-triol]	264 nM	66 nM	< 1 nM	< 1 nM	
COc1cc(NCCCCCCN2C[C@H](O)[C@@H](O)[C@H](O)[C@H]2CO)cc(-c2ccccc2)c1 [Compound 1150, (2R,3R,4R,5S)-2-(hydroxymethyl)-1-[6-({5-methoxy-[1,1′-biphenyl]-3-yl}amino)hexyl]piperidine-3,4,5-triol]	80 nM	45 nM	< 1 nM	< 1 nM	
CC(C)(C)c1cc(NCCCCCCN2C[C@H](O)[C@@H](O)[C@H](O)[C@H]2CO)cc(-c2ncccn2)c1 [Compound 1151, (2R,3R,4R,5S)-1-(6-{[3-tert-butyl-5-(pyrimidin-2-yl)phenyl]amino}hexyl)-2-(hydroxymethyl)piperidine-3,4,5-triol]	99 nM	24 nM	< 1 nM	< 1 nM	
COc1cc(NCCc2ccc(CCN3C[C@H](O)[C@@H](O)[C@H](O)[C@H]3CO)cc2)cc(-c2ccco2)c1 [Compound 1153, (2R,3R,4R,5S)-1-{2-[4-(2-{[3-(furan-2-yl)-5-methoxy-phenyl]amino}ethyl)phenyl]ethyl}-2-(hydroxymethyl)piperidine-3,4,5-triol]	1360 nM	57 nM	2500 nM	321 nM	
COc1cc(NCCc2ccc(CCN3C[C@H](O)[C@@H](O)[C@H](O)[C@H]3CO)cc2)cc(C2=CCOCC2)c1 [Compound 1154, (2R,3R,4R,5S)-1-{2-[4-(2-{[3-(3,6-dihydro-2H-pyran-4-yl)-5-methoxyphenyl]amino}ethyl)phenyl]ethyl}-2-(hydroxymethyl)piperidine-3,4,5-triol]	919 nM	296 nM	2880 nM	624 nM	
COc1cc(NCCc2ccc(CCN3C[C@H](O)[C@@H](O)[C@H](O)[C@H]3CO)cc2)cc(C2=COCCO2)c1 [Compound 1155, (2R,3R,4R,5S)-1-{2-[4-(2-{[3-(5,6-dihydro-1,4-dioxin-2-yl)-5-methoxyphenyl]amino}ethyl)phenyl]ethyl}-2-(hydroxymethyl)piperidine-3,4,5-triol]	1250 nM	455 nM	726 nM	418 nM	
